Assay results reported in article PMC12751014, “Non-Catalytic Inhibitors of the p38/MK2 Interface: Repurposing Approved Drugs to Target Neuroinflammation in Alzheimer’s Disease” (Journal of Medicinal Chemistry, 2025).
Entries after “also recorded” stand apart in the source; their conditions may differ. One block for each molecule: values may come before it. Where no end group is shown, it is not given here.

Tests used:
p38/MK2 interaction [1] = target: T1, p38/MK2 interaction (Homo sapiens, UniProt Q16539); assay: TR-FRET ultra-high-throughput screening (uHTS), 1536-well, HEK293T lysate VF-p38α / GST-MK2; type: binding; design: inhibition of p38/MK2 interaction, primary screen: concentration or dose not given beside the values; settings: for 620 nm Fold over Control: fluorescence interference readout; for Pct of control: uHTS TR-FRET signal, Emory Enriched Library; for inhibition of p38/MK2 interaction, primary screen: relative to DMSO control, 1536-well
p38/MK2 interaction [2] = target: T1, p38/MK2 interaction; assay: TR-FRET assay with purified recombinant His-p38 and GST-MK2; type: binding; settings: for IC50: purified His-p38 and GST-MK2, read-out: IC50, inhibition of p38/MK2 PPI (TR-FRET, recombinant purified proteins); for inhibition at 30 µM: read-out: inhibition of p38/MK2 PPI at 30 μM, recombinant purified proteins
Experimental: ENSG00000112062, UniProt ID: Q16539-1) was cloned into a pMCSG7 vector and transformed into Escherichia coli strain BL21(DE3). […] The resuspended cells were lysed through sonication. The lysate was centrifuged for 20 min at 70,000g at 4 °C and the clarified supernatant was passed through a gravity column containing 2 mL Ni-NTA resin pre-equilibrated with equilibration buffer. The resin was then washed with 25 column volumes of equilibration buffer supplemented with 40 mM imidazole, and the protein was eluted with equilibration buffer supplemented with 200 mM imidazole. […] The purity of the enzyme was verified by sodium dodecyl sulfate-polyacrylamide gel electrophoresis (SDS-PAGE) with Coomassie staining, aliquots flash frozen in liquid nitrogen, and stored at -80 °C.

HMC3 microglial cells = assay: qRT-PCR of LPS-induced cytokine expression in HMC3 microglial cells; type: cell-based, human; settings: HMC3, 5 μM compound 1 h before 100 ng/mL LPS 4 h
Experimental: HMC3 cells were treated with 100 ng/mL E. coli LPS (Sigma-Aldrich, catalog no. L4005) for 4 h in DMEM media. […] Following pretreatment, iMGLs were challenged with 100 ng/mL LPS and 20 ng/mL interferon-γ (IFN-γ) for 24 h to induce an inflammatory response. At the end of the stimulation, cell lysates were collected for qPCR analysis of TNF-α […] gene expression. Total RNA isolation from cell samples was conducted using the RNeasy Plus kit (Qiagen, catalog no. 74134) according to manufacturer instructions and treated with DNase I (Invitrogen, catalog no. 18068-015). Extracted RNA was quantified using the Nanodrop One Spectrophotometer (Thermo Scientific) and then reverse-transcribed into cDNA in equal quantity (<1000 ng/reaction) with the SuperScript III System (Invitrogen, catalog no. 18080-051) following manufacturer directions. cDNA sample was treated with RNase H (Invitrogen, catalog no. 18021014) and diluted to 4 ng/μL equivalent of the starting total RNA. qPCR was performed in 96-well PCR plates (BioRad, catalog no. HSP9601) using the Realplex4Mastercycler (Eppendorf). Each reaction well combines 5 μL cDNA sample, 10 μL 2X SYBR Green Supermix (BioRad, catalog no. 1725271), 1 μL 5 μM primer mix for each target gene, and nuclease-free water up to 20 μL. […] The primer sequences used were: TNFα forward [NT], reverse [NT]-6 forward [NT], reverse [NT]-1β forward [NT], reverse [NT] Each gene was expression-normalized against the housekeeping gene GAPDH with the primer sequences: forward [NT], reverse [NT] Primers were obtained from Integrated DNA Technologies in lyophilized form. The cycler program was set to denaturation at 95 °C for 15 s, followed by annealing and extension at 60 °C for 60 s, repeated for 40 PCR cycles. Melting curve analyses were performed for each sample to ensure primer specificity. The experiment was performed in biological quadruplicates and technical quadruplicates.

p38/MK2 interaction [3] = target: T1, p38/MK2 interaction; assay: Cell lysate-based TR-FRET (VF-p38 / GST-MK2, HEK293T lysate), dose-response; type: binding; settings: read-out: IC50, p38/MK2 PPI, cell lysate-based TR-FRET
[4] = target: VF-tagged p38 / His-tagged MK2 346–400 docking peptide (Homo sapiens, UniProt Q16539); assay: Cell lysate-based TR-FRET competition assay, VF-p38 / His-MK2 346–400 docking peptide; settings: HEK293T lysate TR-FRET; read-out: IC50, binding of His-MK2 346–400 docking peptide to VF-p38
[5] = target: T2, His-tagged p38α (MAPK14), purified recombinant (human, UniProt Q16539-1 1-360); assay: FRET or BRET; TR-FRET with purified His-p38α (10 nM) and GST-MK2 (1 uM), anti-His-d2 and anti-GST-Tb antibodies; 20 mM Tris-HCl pH 7.0, 50 mM NaCl, 0.01% NP-40; room temperature, 2 h; peptides or compounds added as competitors; settings: both partners purified
T2 construct: also called His-p38; His-p38α; source: E. coli BL21(DE3), purified (Ni-NTA, S200 size exclusion), in-house; or bought: Abcam AB271606; for the FP assay obtained from research collaborators

[6] = target: T2, His-tagged p38α (MAPK14), purified …; assay: fluorescence polarisation; 10 nM FITC-MK2 peptide with His-p38α serially diluted 2-fold from a 5 uM working solution; 20 mM Tris-HCl pH 7.0, 50 mM NaCl, 0.01% NP-40; 384-well plate; settings: both partners purified

T1 sequence (Q16539 whole entry): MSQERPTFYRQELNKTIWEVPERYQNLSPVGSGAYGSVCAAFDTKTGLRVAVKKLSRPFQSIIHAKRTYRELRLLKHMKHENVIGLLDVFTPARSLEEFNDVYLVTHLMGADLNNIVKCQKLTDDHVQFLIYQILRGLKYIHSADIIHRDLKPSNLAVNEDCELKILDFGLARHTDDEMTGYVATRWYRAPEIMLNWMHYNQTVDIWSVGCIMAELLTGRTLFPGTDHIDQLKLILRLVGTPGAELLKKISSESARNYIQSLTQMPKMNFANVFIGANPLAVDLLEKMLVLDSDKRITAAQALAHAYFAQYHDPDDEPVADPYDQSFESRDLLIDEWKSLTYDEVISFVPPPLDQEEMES
Sequence of VF-tagged p38 / His-tagged MK2 346–400 docking peptide (Q16539 whole entry): as above
T2 sequence (Q16539 whole entry): as above

Molecule: C=CC(=O)Nc1ccc2ncnc(Nc3ccc(OCc4cccc(F)c4)c(Cl)c3)c2c1 [AST-1306, N-[4-[3-chloro-4-[(3-fluorophenyl)methoxy]anilino]quinazolin-6-yl]prop-2-enamide;4-methylbenzenesulfonic acid]
620 nm Fold over Control (p38/MK2 interaction [1]): 1.01 | Pct of control (p38/MK2 interaction [1]): 9.2 Pct of control

Molecule: CCc1cn(-c2cc(NC(=O)c3ccc(C)c(Nc4nccc(-c5cccnc5)n4)c3)cc(C(F)(F)F)c2)cn1 [Compound 2]
IC50 (p38/MK2 interaction [2]): 2.27 µM

Molecule: Cc1cn(-c2cc(C(=O)Nc3ccc(C)c(Nc4nccc(-c5cccnc5)n4)c3)cc(C(F)(F)F)c2)cn1 [Compound 3]
IC50 (p38/MK2 interaction [2]): 7.45 µM

Molecule: Cc1cn(-c2cc(NC(=O)c3ccc(O)c(Nc4nccc(-c5cccnc5)n4)c3)cc(C(F)(F)F)c2)cn1 [Compound 4]
IC50 (p38/MK2 interaction [2]): 8.24 µM

Molecule: Cc1cn(-c2cc(NC(=O)c3ccc(C)c(Nc4ncccn4)c3)cc(C(F)(F)F)c2)cn1 [Compound 5]
IC50 (p38/MK2 interaction [2]): 11.5 µM

Molecule: CNC(=O)c1ccc(CCNC(=O)C(=O)Nc2cc(-n3cnc(C)c3)cc(C(F)(F)F)c2)cc1 [Compound 6]
IC50 (p38/MK2 interaction [2]): 21.3 µM

Molecule: Cc1cn(-c2cc(NC(=O)Nc3nnc(-c4ccncc4)s3)cc(C(F)(F)F)c2)cn1 [Compound 7]
inhibition at 30 µM (p38/MK2 interaction [2]): < 50%

Molecule: Cc1cn(-c2cc(NC(=O)C(=O)NCc3cccc(C(N)=O)c3)cc(C(F)(F)F)c2)cn1 [Compound 8]
inhibition at 30 µM (p38/MK2 interaction [2]): < 50%

Molecule: Cc1cn(-c2cc(NC(=O)c3[nH]cnc3C#N)cc(C(F)(F)F)c2)cn1 [Compound 9]
inhibition at 30 µM (p38/MK2 interaction [2]): < 50%

Molecule: COc1ccc(CC(=O)Nc2cc(-n3cnc(C)c3)cc(C(F)(F)F)c2)nc1 [Compound 10]
inhibition at 30 µM (p38/MK2 interaction [2]): < 50%

Molecule: CCCCCCCCCCCCc1ccc(S(=O)(=O)Nc2nncs2)cc1 [PHT-427, 4-dodecyl-N-(1,3,4-thiadiazol-2-yl)benzenesulfonamide]
620 nm Fold over Control (p38/MK2 interaction [1]): 0.94 | Pct of control (p38/MK2 interaction [1]): -2.49 Pct of control

Molecule: O=c1ncn2nc(Sc3ccc(F)cc3F)ccc2c1-c1c(Cl)cccc1Cl [VX-745]
disruption of p38/MK2 interaction (TR-FRET signal) (p38/MK2 interaction [2]; recombinant p38 and MK2 purified from E. coli): failed to disrupt the interaction; also recorded: failed to reduce the TR-FRET signal

Molecule: Cc1cc(C(C#N)c2ccc(Cl)cc2)c(Cl)cc1NC(=O)c1cc(I)cc(I)c1O (stereo not drawn) [closantel]
inhibition of p38/MK2 interaction, primary screen (p38/MK2 interaction [1]): 53%

B1: FITC-MK2 369–382 peptide (peptide, UniProt P49137 369-382, looked up)
peptide: QIKIKKIEDASNPL
modifications: not fully specified (N-terminus); also: FITC label (position not given here)
notes: MK2 (MAPKAPK2) C-terminal docking motif, residues 369-382 as named in the text; 369-382 would be 14 residues; the legend's I370-L382 is 13 residues; also called I370-L382; truncated 13-residue peptide
IC50 [5]: 4.26 µM

B2: FITC-MK2 370–393 peptide (peptide, UniProt P49137 370-393, looked up)
peptide: IKIKKIEDASNPLLLKRRKKARAL
modifications: not fully specified (N-terminus); also: FITC label (position not given here)
notes: MK2 (MAPKAPK2) C-terminal docking motif, residues 370-393 (I370-L393); the methods name the peptide 370-390; also called I370–L393; FITC conjugated MK2 370–390 peptide (methods); source: synthetic peptide, bought: GenScript
IC50 [5]: 0.42 µM | EC50 [6]: 0.0269 µM

Continued, in another order:

IC50 (p38/MK2 interaction [2]): 6.9 µM | IC50 (p38/MK2 interaction [3]): 10 µM | IC50 [4]: 14.4 µM | inhibition of p38/MK2 interaction, primary screen (p38/MK2 interaction [1]): 82%
Molecule: COc1cc2nc(N(C)CCCNC(=O)C3CCCO3)nc(N)c2cc1OC (stereo not drawn) [alfuzosin]
LPS-induced TNF-α, IL-6, and IL-1β expression (HMC3 microglial cells): significantly (p-values <0.05) suppressed

inhibition of p38/MK2 interaction, primary screen (p38/MK2 interaction [1]): 51%
Molecule: C[C@@H]1[C@H](O)[C@@H](C)/C=C/C=C/C=C/C=C/C=C/C=C/C=C/[C@H](O[C@@H]2O[C@H](C)[C@@H](O)[C@H](N)[C@@H]2O)C[C@@H]2O[C@](O)(C[C@@H](O)C[C@@H](O)[C@H](O)CC[C@@H](O)C[C@@H](O)CC(=O)O[C@H]1C)C[C@H](O)[C@H]2C(=O)O [amphotericin B]

inhibition of p38/MK2 interaction, primary screen (p38/MK2 interaction [1]): 56%
Molecule: CN1CCc2cccc3c2[C@H]1Cc1ccc(O)c(O)c1-3 [apomorphine]

inhibition of p38/MK2 interaction, primary screen (p38/MK2 interaction [1]): 74%
Molecule: C=C(c1ccc(C(=O)O)cc1)c1cc2c(cc1C)C(C)(C)CCC2(C)C [bexarotene]

inhibition of p38/MK2 interaction, primary screen (p38/MK2 interaction [1]): 68%
Molecule: CCOc1nc2cccc(C(=O)OC(C)OC(=O)OC3CCCCC3)c2n1Cc1ccc(-c2ccccc2-c2nnn[nH]2)cc1 (stereo not drawn) [candesartan cilexetil]

IC50 (p38/MK2 interaction [2]): 4.4 µM | IC50 (p38/MK2 interaction [3]): 30.1 µM | IC50 [4]: 4.6 µM | inhibition of p38/MK2 interaction, primary screen (p38/MK2 interaction [1]): 58%
Molecule: COc1cc2nc(N3CCN(C(=O)C4COc5ccccc5O4)CC3)nc(N)c2cc1OC (stereo not drawn) [doxazosin]
LPS-induced TNF-α, IL-6, and IL-1β expression (HMC3 microglial cells): significantly (p-values <0.05) suppressed

inhibition of p38/MK2 interaction, primary screen (p38/MK2 interaction [1]): 51%
Molecule: CN(C)[C@@H]1C(O)=C(C(N)=O)C(=O)[C@@]2(O)C(O)=C3C(=O)c4c(O)cccc4[C@@](C)(O)[C@H]3[C@H](O)[C@@H]12 [oxytetracycline]

inhibition of p38/MK2 interaction, primary screen (p38/MK2 interaction [1]): 73%
Molecule: CS(=O)(=O)c1ccc(C2=C(c3ccccc3)C(=O)OC2)cc1 [rofecoxib]

IC50 (p38/MK2 interaction [2]): 6.2 µM | IC50 (p38/MK2 interaction [3]): 10.5 µM | IC50 [4]: 8.3 µM | inhibition of p38/MK2 interaction, primary screen (p38/MK2 interaction [1]): 77%
Molecule: COc1cc2nc(N3CCN(C(=O)C4CCCO4)CC3)nc(N)c2cc1OC (stereo not drawn) [terazosin]
LPS-induced TNF-α, IL-6, and IL-1β expression (HMC3 microglial cells): significantly (p-values <0.05) suppressed
